Measured values: patent US20220351806A1, “Biomarker Panels for Guiding Dysregulated Host Response Therapy” (Endpoint Health Inc., priority 2019, published 2022)

System: sepsis patients
Test: VANISH trial survival analysis, hydrocortisone vs placebo, by patient subtype classifier
Format: in vivo, human
Set-up: mortality reduction in the placebo group in comparison to the hydrocortisone group / Mortality rate: concentration or dose not given beside the values
Settings: for Alive / Dead / Mortality rate / Survival rate / Mortality Reduction Group: VANISH trial; for Alive / Dead / Mortality rate / Survival rate: Hydro group; for 28-day mortality reduction in the placebo group in comparison to the hydrocortisone group: VANISH; for Mortality Reduction Group: arm with lower mortality, Hydro vs Placebo
From the text: The test expression data from each trial were normalized by the platform normalization matrix described above^13 so that the test data were more consistent with the training data. The classifiers (e.g., the Full Model, the SS Model, the S Model, and the P Model) were then applied to the normalized data such that the patients were classified into A, B, and C subtypes. […] Therefore, each sample in the target samples was normalized independently with the normalization matrix of the sample array platform.
Survival and mortality rates were calculated at day 28 because survival and mortality labels at other time points were not available. […] Binomial and Chi-squared with continuity correction tests were used to test for the significance of these differences.
In one example, previously identified subtypes of sepsis patients were used to tune the model to identify these type A and B patients. Two distinct sepsis response signatures (SRS1 and SRS2) were identified in five public studies (E-MTAB-4421, E-MTAB-4451, E-MTAB-5273, E-MTAB-5274, and E-MTAB-7581), where HumanHT-12 v4 BeadChip were used to generate the gene expression profiles of the patient samples. The processed data of those five studies were downloaded and processed using R programming language and software environment for statistical analysis (version 3.6.3). The Bioconductor annotation package, illuminaHumanv4.db (version 1.26.0), was used to annotate microarray probes and expression levels of genes were determined by each individual probe or mean of probes belonging to the same gene. In order to remove cohort biases, the Bioconductor package, limma (version 3.42.2), was used to remove batch effects. Using ss.b2 panel genes, subtype A, B, and C scores were calculated by geometric mean of up/down genes.
To build the classifier, we defined E-MTAB-4421, E-MTAB-4451, E-MTAB-5273, and E-MTAB-5274 as the training dataset and VANISH (E-MTAB-7581) as the testing dataset. We used features (subtype A, B, and C scores) and class labels (SRS1 vs SRS2) in the training dataset to build a machine-learned classifier based on support-vector machine (SVM) method. SVM is a supervised machine learning method for classification analysis. The algorithm finds a single or a set of hyperplanes that maximize the margin among subtype A, B, and C scores. In order to capture non-linear data, the kernel function was used. R package e1071 was used to build the SVM classifier with following parameters: method=“C-classification”, kernal=“radial”, gamma=0.1, and cost=10.
The accuracy of the classifiers was evaluated by Leave-One-Out (LOO) cross-validation over the training dataset. Also the classifier was applied to 117 controlled samples from VANISH trial.
In addition to the SVM-method, thresholds can be employed to scores in order to define A vs. B labels. […] Therefore we applied a heuristic threshold (threshold=0) to subtype A and B scores to classify SRS1-like and SRS2-like in VANISH: SRS2-like label was assigned to samples with subtype A score >0 and subtype B score <0 and SRS1-like label was assigned to the rest of samples.
Besides the heuristic threshold, we also derived the thresholds for subtype A and B scores using the training dataset. Same as the SVM method, we defined E-MTAB-4421, E-MTAB-4451, E-MTAB-5273, and E-MTAB-5274 as the training dataset and VANISH (E-MTAB-7581) as the testing dataset.

[1] = day 28, Full Model, subtypes CA
[2] = day 28, SS.B2 Model (SVM), Total
[3] = day 28, SS.B2 Model (SVM), type A (SRS2-like)
[4] = day 28, SS.B2 Model (SVM), type B (SRS1-like)

C[C@]12CCC(=O)C=C1CC[C@@H]1[C@@H]2[C@@H](O)C[C@@]2(C)[C@H]1CC[C@]2(O)C(=O)CO [Hydro, hydrocortisone] showed an Alive (day 28, Full Model, subtype C) of 11, a Dead (day 28, Full Model, subtype C) of 8 and a Mortality rate (day 28, Full Model, subtype C) of 42.1%. It also gave a Survival rate (day 28, Full Model, subtype C) of 57.9%, an Alive [1] of 20 and a Dead [1] of 16. It also gave a Mortality rate [1] of 44.4%, a Survival rate [1] of 55.6% and an Alive (day 28, P Model, Total) of 36. For the same compound, the Dead (day 28, P Model, Total) was 22, the Mortality rate (day 28, P Model, Total) was 37.9% and the Survival rate (day 28, P Model, Total) was 62.1%. It also gave an Alive (day 28, P Model, subtype A) of 9, a Dead (day 28, P Model, subtype A) of 10 and a Mortality rate (day 28, P Model, subtype A) of 52.6%. The Survival rate (day 28, P Model, subtype A) was 47.4%, the Alive (day 28, P Model, subtype B) was 23 and the Dead (day 28, P Model, subtype B) was 8. For the same compound, the Mortality rate (day 28, P Model, subtype B) was 25.8%, the Survival rate (day 28, P Model, subtype B) was 74.2% and the Alive (day 28, P Model, subtype C) was 4. For the same compound, the Dead (day 28, P Model, subtype C) was 4, the Mortality rate (day 28, P Model, subtype C) was 50.0% and the Survival rate (day 28, P Model, subtype C) was 50.0%. The Alive (day 28, P Model, subtypes CA) was 13, the Dead (day 28, P Model, subtypes CA) was 14 and the Mortality rate (day 28, P Model, subtypes CA) was 51.9%. For the same compound, the Survival rate (day 28, P Model, subtypes CA) was 48.1%, the Alive (day 28, S Model, Total) was 20 and the Dead (day 28, S Model, Total) was 13. For the same compound, the Mortality rate (day 28, S Model, Total) was 39.4%, the Survival rate (day 28, S Model, Total) was 60.6% and the Alive (day 28, S Model, subtype A) was 16. The Dead (day 28, S Model, subtype A) was 9, the Mortality rate (day 28, S Model, subtype A) was 36.0% and the Survival rate (day 28, S Model, subtype A) was 64.0%. For the same compound, the Alive (day 28, S Model, subtype B) was 12, the Dead (day 28, S Model, subtype B) was 9 and the Mortality rate (day 28, S Model, subtype B) was 42.9%. For the same compound, the Survival rate (day 28, S Model, subtype B) was 57.1%, the Alive (day 28, S Model, subtype C) was 8 and the Dead (day 28, S Model, subtype C) was 4. It also gave a Survival rate (day 28, S Model, subtype C) of 66.7%, an Alive (day 28, S Model, subtypes CA) of 8 and a Dead (day 28, S Model, subtypes CA) of 4. The Survival rate (day 28, S Model, subtypes CA) was 66.7%, the Alive (day 28, SS Model, Total) was 36 and the Dead (day 28, SS Model, Total) was 22. The Mortality rate (day 28, SS Model, Total) was 37.9%, the Survival rate (day 28, SS Model, Total) was 62.1% and the Alive (day 28, SS Model, subtype A) was 15. The Dead (day 28, SS Model, subtype A) was 9, the Mortality rate (day 28, SS Model, subtype A) was 37.5% and the Survival rate (day 28, SS Model, subtype A) was 62.5%. It also gave an Alive (day 28, SS Model, subtype B) of 5, a Dead (day 28, SS Model, subtype B) of 5 and a Mortality rate (day 28, SS Model, subtype B) of 50.0%. The Survival rate (day 28, SS Model, subtype B) was 50.0%, the Alive (day 28, SS Model, subtype C) was 16 and the Dead (day 28, SS Model, subtype C) was 8. It also gave a Survival rate (day 28, SS Model, subtype C) of 66.7%, an Alive (day 28, SS Model, subtypes CA) of 31 and a Dead (day 28, SS Model, subtypes CA) of 17. It also gave a Survival rate (day 28, SS Model, subtypes CA) of 64.6%, an Alive [2] of 36 and a Dead [2] of 22. The Mortality rate [2] was 37.9%, the Survival rate [2] was 62.1% and the Alive [3] was 22. It also gave a Dead [3] of 14, a Mortality rate [3] of 38.9% and a Survival rate [3] of 61.1%. It also gave an Alive [4] of 14, a Dead [4] of 8 and a Mortality rate [4] of 36.4%. For the same compound, the Survival rate [4] was 63.6%, the “28-day mortality reduction in the placebo group in comparison to the hydrocortisone group” value (SRS2-like patients by ROC-derived thresholds (A threshold=-0.2664, B threshold=0.3179)) was 81.7% and the “28-day mortality reduction in the placebo group in comparison to the hydrocortisone group” value (SRS2-like patients by heuristic threshold=0 (A score >0, B score <0)) was 85.2%. The “Mortality Reduction Group” value (day 28, Full Model, Total) was “Placebo”, the “Mortality Reduction Group” value (day 28, Full Model, subtype A) was “Placebo” and the “Mortality Reduction Group” value (day 28, Full Model, subtype B) was “Hydro”. The “Mortality Reduction Group” value (day 28, Full Model, subtype C) was “Placebo”, the “Mortality Reduction Group” value [1] was “Placebo” and the “Mortality Reduction Group” value (day 28, P Model, Total) was “Placebo”. The “Mortality Reduction Group” value (day 28, P Model, subtype A) was “Placebo”, the “Mortality Reduction Group” value (day 28, P Model, subtype B) was “Hydro” and the “Mortality Reduction Group” value (day 28, P Model, subtype C) was “Placebo”. For the same compound, the “Mortality Reduction Group” value (day 28, P Model, subtypes CA) was “Placebo”, the “Mortality Reduction Group” value (day 28, SS Model, Total) was “Placebo” and the “Mortality Reduction Group” value (day 28, SS Model, subtype A) was “Placebo”. For the same compound, the “Mortality Reduction Group” value (day 28, SS Model, subtype B) was “Placebo”, the “Mortality Reduction Group” value (day 28, SS Model, subtype C) was “Placebo” and the “Mortality Reduction Group” value (day 28, SS Model, subtypes CA) was “Placebo”. The “Mortality Reduction Group” value [2] was “Placebo”, the “Mortality Reduction Group” value [3] was “Placebo” and the “Mortality Reduction Group” value [4] was “Hydro”. For the same compound, the “lower mortality in the placebo group when compared to the hydrocortisone therapy group” value (sepsis patients, 28-day, subtype A, Full Model) was 64.6%, the “lower mortality in the placebo group when compared to the hydrocortisone therapy group” value (sepsis patients, 28-day, subtype A, P Model) was 77.6% and the “lower mortality in the placebo group when compared to the hydrocortisone therapy group” value (sepsis patients, 28-day, subtype A, S Model) was 86.1%. For the same compound, the “lower mortality in the placebo group when compared to the hydrocortisone therapy group” value (sepsis patients, 28-day, subtype A, SS Model) was 86.0%, the “lower mortality in the hydrocortisone group when compared to the placebo group” value (sepsis patients, 28-day, subtype B, Full Model) was 35.2% and the “lower mortality in the placebo group when compared to the hydrocortisone therapy group” value (sepsis patients, 28-day, subtype C, Full Model) was 56.8%.
